One assay concerns FGF23. Briefly: FGF23 bone mRNA and serum levels after single oral dose in wild-type and Hyp mice. It counts as in vivo, mouse. The conditions noted are these: single oral dose 50 mg/kg, 7 h post-dosing. How it is done: Kidneys were sampled, total RNA was isolated. For RNA isolation from mouse tibial and femoral bones, epiphyses were cut off and bone marrow was removed by centrifugation at 4° C. Tissue was homogenized using a Precellyis 24 bead homogenizer and RNA was extracted with TRIzol reagent. RNA was purified subsequently by chloroform extraction, isopropanol precipitation and RNeasy Mini kit. For kidney RNA, approximately 60 mg of tissue was homogenized in 1.5 ml RTL buffer (Qiagen) with a rotor-stator homogenizer and RNA was purified with the RNeasy Mini kit. Random hexamer primed cDNA was synthesized with 0.5-2 μg RNA and MultiScribe MuLV reverse transcriptase.
Gene expression was analyzed by quantitative real-time PCR (qPCR). TaqMan Probe-Based Gene Expression assays were used for expression analysis of mouse Cyp27b1 (Mm01165919), Cyp24a1 (Mm00487244) and Gapdh (4352339E). Sequences of primers and FAM/TAMRA-labeled probes (Microsynth) for the detection of mouse Fgf23 were 5′-[…] (forward), 5′-[…] (reverse) and 5′-[…] (probe). Quantitative real-time PCR was performed in an iQ5 Real-Time PCR Detection System using a qPCR core kit for probe assay and an equivalent of 40 or 80 ng RNA of each sample. The data were normalized to Gapdh expression.
Serum was separated from whole blood using clot activator centrifugation tubes. 100 μl of serum were used for determination of phosphate and calcium levels using the VetScan diagnostic profiling system. Serum concentrations of 1,25(OH)2D3 were determined using a radio receptor assay kit. FGF23 serum levels were analyzed by an ELISA detecting intact FGF23 (Kainos).
Besides the alleviation of the mineral ion deficiency in the two mouse models for FGF23-related hypophosphatemic rickets, we also noticed a repressive effect of FGFR inhibitor treatment on FGF23 levels in BGJ398-treated Hyp mice. Mice received a single oral dose of the FGFR inhibitor BGJ398 (50 mg/kg) or vehicle and were studied 7 h post-administration. FGF23 bone mRNA (FIG. 3A) and serum (FIG. 3B) levels in wild-type and Hyp mice treated with BGJ398 were determined. […]

The next assay relates to Hyp mice. Briefly: Long-term (8 weeks, 3 qw) treatment of Hyp mice: bone radiography, micro-CT, histology/histomorphometry. As to conditions: 50 mg/kg 3 qw for 56 days. It counts as in vivo, mouse. How it is done:
Radiographs of femur and tibia were taken ex vivo using a high-resolution radiography system (Faxitron MX-20). μCT measurements were performed ex vivo using a Scanco vivaCT 40 system (voxel size 6 μm; high resolution). For cancellous and cortical bone analyses a fixed threshold of 200 was used to determine the mineralized bone fraction from 50 slices. A Gaussian filter was applied to remove noise (σ=0.7; support=1).
As shown on FIG. 7 long-term FGFR inhibition enhances growth of long bones in Hyp mice. Taken together, these above results illustrate the beneficial effect of pharmacological FGFR inhibition in the context of aberrant FGF23 signaling and indicate a potential alleviation of the bone formation deficiency of Hyp mice. […] On FIG. 7.: Radiographs of femur (FIG. 7A) and tibia (FIG. 7B) from wild-type or Hyp mice treated with the FGFR inhibitor BGJ398 (50 mg/kg) or vehicle 3 qw for 56 days. Quantification of femoral (FIG. 7C) and tibial (FIG. 7D) length. Data are shown as average with SEM (n≥6). Data were compared by unpaired Student's t test; * p<0.05; ** p<0.01; *** p<0.001; n. s.: not significant.
Long-term FGFR inhibition improves cortex integrity in femoral bone of Hyp mice. To determine the effect of FGFR inhibitor treatment on bone structure in more detail, we performed microcomputed tomography (CT) analyses of the femoral cortex (sub growth plate area) from wild-type or Hyp mice treated with the FGFR inhibitor BGJ398 (50 mg/kg) or vehicle 3 qw for 56 days (FIG. 8A). Further relative cortical bone volume was quantified (FIG. 8B) and average cortex thickness determined (FIG. 8C).
Long-term treatment with BGJ398 restores growth plate organization Hyp mice. we also found an ameliorative effect of BGJ398-treatment on growth plate organization in Hyp mice in tibial histological sections (FIG. 9A). […] Mineralized tissue is indicated by white arrows, unmineralized osteoid is visualized by dark grey (indicated by black arrows). Growth plate structure is shown by light grey staining in the central part of the sections (FIG. 9B). Osteoid surface/bone surface and osteoid width (FIG. 9C) determined by histomorphometry in the tibial epiphysis of wild-type or Hyp mice treated with BGJ398 (50 mg/kg) or vehicle 3 qw for 56 days. Data are shown as average with SEM (n≥6). Data were compared by unpaired Student's t test; * p<0.05; ** p<0.01; *** p<0.001. In vehicle-treated Hyp mice the columnar organization and directional growth of chondrocytes was disturbed in contrast to the highly ordered structure in wild-type mice. In addition, mineralization was impaired in control Hyp mice, as indicated by the abundance of unmineralized osteoid.

The structures appear in SMILES notation. Entries after “also recorded” stand apart in the source; their conditions may differ.

As to `CCN1CCN(c2ccc(Nc3cc(N(C)C(=O)Nc4c(Cl)c(OC)cc(OC)c4Cl)ncn3)cc2)CC1` [BGJ398, 3-(2,6-Dichloro-3,5-dimethoxy-phenyl)-1-{6-[4-(4-ethyl-piperazin-1-yl)-phenylamino]-pyrimid-4-yl}-1-methyl-urea], in the assay with FGF23 (Hyp mice), the “reduction of serum FGF23 levels” value is recorded as “approximately 50%”. In the assay on FGF23 (both Hyp and wild-type mice), the “FGF23 expression in bone (mRNA)” value is “almost abolished”. Further, the “serum FGF23 levels” value in the assay on FGF23 (wild-type mice) is listed as “undetectable”. For the same molecule, in the assay on Hyp mice, the “femoral cortex integrity (micro-CT)” value is recorded as “appeared intact”; the “mineralization in the epiphyseal bone area adjacent to the growth plate” value is listed as “enhanced mineralization”; the “primary spongiosa in the metaphyseal sub-growth plate area” value was “formation of primary spongiosa”; the “widening of femoral and tibial growth plate areas” value is reported as “partially alleviate”. Also, the “growth plate organization (tibial sections, Goldner staining)” value in the assay with Hyp mice (50 mg/kg) is “striking re-organization of the growth plate area”. For the same molecule, in the assay on Hyp mice (vs vehicle Hyp), the “femur length (radiography)” value is recorded as “significant elongation” and the “tibia length (radiography)” value is “significant elongation”. Besides, in the assay on Hyp mice (epiphyseal, metaphyseal and cortical bone compartments), the osteoid width entry was “strong reduction”. Moreover, the “relative cortical bone volume” value in the assay with Hyp mice (femoral cortex, 50 mg/kg) is given as “increases from pathological values to indistinguishable with normal values; also recorded: indistinguishable from wild-type mice”. Moreover, the average cortex thickness entry in the assay with Hyp mice (femoral cortex, vs vehicle Hyp, 50 mg/kg) is “significantly increased compared to vehicle-treated Hyp mice”. Besides, the “Osteoid surface/bone surface (OS/BS ratio)” value in the assay on Hyp mice (histomorphometry) is reported as “attenuation of the increased OS/BS ratio”. In addition, in the assay with Hyp mice (tibial sections), the “columnar stacks of chondrocytes” value was “re-formation” and the “height of the proliferative zone” value was “increased height”.

Source of the values: patent publication US10028955B2, “FGFR inhibitor for use in the treatment of hypophosphatemic disorders” (Novartis AG, priority 2012, dated 2018).
